{
  "source": "patent US8192962B2",
  "about": "“Processes for detecting toxic substances” (Daikin Industries, Ltd., priority 2001, dated 2012)",
  "system": "Transport facilitation protein genes",
  "assay": "DNA chip mRNA expression in yeast, transport facilitation protein genes (Table 5)",
  "format": "cell-based, Saccharomyces cerevisiae S288C",
  "procedure": "Yeast (Saccharomyces cerevisiae S288C (α SUC2mal mel gap2 CUP1)) were incubated at 25° C. on YPD medium (yeast extract 1%, polypepton 2%, glucose 2%). One of toxic chemical substances was added to the cells at logarithmic growth phase, and the cells were further incubated for two hours. Cells were cultured without any chemical substance in the same condition, and were used as control. Concentrations of the chemical substances were defined to inhibit the growth of the yeast but not lead to death.\nAfter completion of the incubation, the culture was centrifuged to collect the cells. To the cells, sodium acetate buffer (50 mM sodium acetate, 10 mM EDTA, 1% SDS) was added, and the mixture was shaken at 65° C. for five minutes, followed by returning to room temperature, and obtaining the supernatant, of which the procedures were repeated two times. To the supernatant, ½ amount of a solution of phenol/chloroform was added, and the mixture was centrifuged to give a supernatant, which was added with an equal amount of chloroform, and the mixture was centrifuged to give a supernatant. To the supernatant, an equal amount of isopropanol containing 0.3 M sodium acetate was added, and the mixture was allowed to stand at room temperature for 30 minutes, after which the mixture was centrifuged to give a sediment of the whole RNAs. Seventy % ethanol was added to the sediment, and the mixture was again centrifuged to give a sediment, which was then dried and dissolved in water. mRNA was isolated from the whole RNAs as followings. In view of the fact that a poly A chain is attached to the 3′ terminus of mRNA, a polynucleotide having a poly T structure which was immobilized on the surface of latex beads was used to trap the mRNA, and then the mRNA was washed and eluted with spine column (Oligotex-dT30<Super>mRNA Purification Kit, Takara). Reverse transcription of the mRNA was conducted with a reverse transcriptase (Super Script II Reverse Transcriptase; catalogue No. 18064-014, GibcoBRL) using fluorescence-labeled nucleotides to give cDNAs that were introduced with Cy3-dUTP or Cy5-dUTP during the reverse transcription.\nThe labeled cDNAs were dissolved in TE buffer (10mM Tris-HCl/1 mM EDTA, pH8.0), and the solution was dropped on the DNA chip containing the whole genes of yeast (DNA Chip Research Inc. Japan) so that the cDNAs were hybridized on the DNA chip at 65° C. for over 12 hours. The fluoresces intensity of the DNA chip was read with a scanner, and the ratio relative to the fluorescence intensity resulting from the absence of chemical substance was estimated as the following, which is shown in Tables 1 to 9: […]",
  "data": [
    {"smiles": "[Cl][Cd][Cl]", "note": "[(2), CdCl2]", "values": [
      {"measurement": "The level of expressed mRNA in the presence of chemical substance/The level of expressed mRNA in the absence of chemical substance", "setting": "yeast gene YGR224W", "value": 1.2},
      {"measurement": "The level of expressed mRNA in the presence of chemical substance/The level of expressed mRNA in the absence of chemical substance", "setting": "yeast gene YGR260W", "value": 0.7},
      {"measurement": "The level of expressed mRNA in the presence of chemical substance/The level of expressed mRNA in the absence of chemical substance", "setting": "yeast gene YGR281W", "value": 1.0},
      {"measurement": "The level of expressed mRNA in the presence of chemical substance/The level of expressed mRNA in the absence of chemical substance", "setting": "yeast gene YHL035C", "value": 1.3},
      {"measurement": "The level of expressed mRNA in the presence of chemical substance/The level of expressed mRNA in the absence of chemical substance", "setting": "yeast gene YHL040C", "value": 4.9},
      {"measurement": "The level of expressed mRNA in the presence of chemical substance/The level of expressed mRNA in the absence of chemical substance", "setting": "yeast gene YHL047C", "value": 4.4},
      {"measurement": "The level of expressed mRNA in the presence of chemical substance/The level of expressed mRNA in the absence of chemical substance", "setting": "yeast gene YHR026W", "value": 1.0},
      {"measurement": "The level of expressed mRNA in the presence of chemical substance/The level of expressed mRNA in the absence of chemical substance", "setting": "yeast gene YHR092C", "value": 1.0},
      {"measurement": "The level of expressed mRNA in the presence of chemical substance/The level of expressed mRNA in the absence of chemical substance", "setting": "yeast gene YHR094C", "value": 1.2},
      {"measurement": "The level of expressed mRNA in the presence of chemical substance/The level of expressed mRNA in the absence of chemical substance", "setting": "yeast gene YHR175W", "value": 2.0},
      {"measurement": "The level of expressed mRNA in the presence of chemical substance/The level of expressed mRNA in the absence of chemical substance", "setting": "yeast gene YIL006W", "value": 1.1},
      {"measurement": "The level of expressed mRNA in the presence of chemical substance/The level of expressed mRNA in the absence of chemical substance", "setting": "yeast gene YIL022W", "value": 0.7},
      {"measurement": "The level of expressed mRNA in the presence of chemical substance/The level of expressed mRNA in the absence of chemical substance", "setting": "yeast gene YIL056W", "value": 0.9},
      {"measurement": "The level of expressed mRNA in the presence of chemical substance/The level of expressed mRNA in the absence of chemical substance", "setting": "yeast gene YIL088C", "value": 2.1},
      {"measurement": "The level of expressed mRNA in the presence of chemical substance/The level of expressed mRNA in the absence of chemical substance", "setting": "yeast gene YJL034W", "value": 1.7},
      {"measurement": "The level of expressed mRNA in the presence of chemical substance/The level of expressed mRNA in the absence of chemical substance", "setting": "yeast gene YJL212C", "value": 3.2},
      {"measurement": "The level of expressed mRNA in the presence of chemical substance/The level of expressed mRNA in the absence of chemical substance", "setting": "yeast gene YJL219W", "value": 2.5},
      {"measurement": "The level of expressed mRNA in the presence of chemical substance/The level of expressed mRNA in the absence of chemical substance", "setting": "yeast gene YJR077C", "value": 1.1},
      {"measurement": "The level of expressed mRNA in the presence of chemical substance/The level of expressed mRNA in the absence of chemical substance", "setting": "yeast gene YJR106W", "value": 3.8},
      {"measurement": "The level of expressed mRNA in the presence of chemical substance/The level of expressed mRNA in the absence of chemical substance", "setting": "yeast gene YJR121W", "value": 1.1},
      {"measurement": "The level of expressed mRNA in the presence of chemical substance/The level of expressed mRNA in the absence of chemical substance", "setting": "yeast gene YKL016C", "value": 1.3},
      {"measurement": "The level of expressed mRNA in the presence of chemical substance/The level of expressed mRNA in the absence of chemical substance", "setting": "yeast gene YKL146W", "value": 1.3},
      {"measurement": "The level of expressed mRNA in the presence of chemical substance/The level of expressed mRNA in the absence of chemical substance", "setting": "yeast gene YKR039W", "value": 3.5},
      {"measurement": "The level of expressed mRNA in the presence of chemical substance/The level of expressed mRNA in the absence of chemical substance", "setting": "yeast gene YKR067W", "value": 2.6},
      {"measurement": "The level of expressed mRNA in the presence of chemical substance/The level of expressed mRNA in the absence of chemical substance", "setting": "yeast gene YLL028W", "value": 0.9},
      {"measurement": "The level of expressed mRNA in the presence of chemical substance/The level of expressed mRNA in the absence of chemical substance", "setting": "yeast gene YLR081W", "value": 0.8},
      {"measurement": "The level of expressed mRNA in the presence of chemical substance/The level of expressed mRNA in the absence of chemical substance", "setting": "yeast gene YLR295C", "value": 1.1},
      {"measurement": "The level of expressed mRNA in the presence of chemical substance/The level of expressed mRNA in the absence of chemical substance", "setting": "yeast gene YLR348C", "value": 4.5},
      {"measurement": "The level of expressed mRNA in the presence of chemical substance/The level of expressed mRNA in the absence of chemical substance", "setting": "yeast gene YLR378C", "value": 0.9},
      {"measurement": "The level of expressed mRNA in the presence of chemical substance/The level of expressed mRNA in the absence of chemical substance", "setting": "yeast gene YMR011W", "value": 1.0},
      {"measurement": "The level of expressed mRNA in the presence of chemical substance/The level of expressed mRNA in the absence of chemical substance", "setting": "yeast gene YMR162C", "value": 1.1},
      {"measurement": "The level of expressed mRNA in the presence of chemical substance/The level of expressed mRNA in the absence of chemical substance", "setting": "yeast gene YMR203W", "value": 0.7},
      {"measurement": "The level of expressed mRNA in the presence of chemical substance/The level of expressed mRNA in the absence of chemical substance", "setting": "yeast gene YNL055C", "value": 1.8},
      {"measurement": "The level of expressed mRNA in the presence of chemical substance/The level of expressed mRNA in the absence of chemical substance", "setting": "yeast gene YNR072W", "value": 1.5},
      {"measurement": "The level of expressed mRNA in the presence of chemical substance/The level of expressed mRNA in the absence of chemical substance", "setting": "yeast gene YOL119C", "value": 4.8},
      {"measurement": "The level of expressed mRNA in the presence of chemical substance/The level of expressed mRNA in the absence of chemical substance", "setting": "yeast gene YOL156W", "value": 0.7},
      {"measurement": "The level of expressed mRNA in the presence of chemical substance/The level of expressed mRNA in the absence of chemical substance", "setting": "yeast gene YOL163W", "value": 3.2},
      {"measurement": "The level of expressed mRNA in the presence of chemical substance/The level of expressed mRNA in the absence of chemical substance", "setting": "yeast gene YOR035C", "value": 1.2},
      {"measurement": "The level of expressed mRNA in the presence of chemical substance/The level of expressed mRNA in the absence of chemical substance", "setting": "yeast gene YOR130C", "value": 1.7},
      {"measurement": "The level of expressed mRNA in the presence of chemical substance/The level of expressed mRNA in the absence of chemical substance", "setting": "yeast gene YOR153W", "value": 0.9},
      {"measurement": "The level of expressed mRNA in the presence of chemical substance/The level of expressed mRNA in the absence of chemical substance", "setting": "yeast gene YOR273C", "value": 1.0},
      {"measurement": "The level of expressed mRNA in the presence of chemical substance/The level of expressed mRNA in the absence of chemical substance", "setting": "yeast gene YOR316C", "value": 2.5},
      {"measurement": "The level of expressed mRNA in the presence of chemical substance/The level of expressed mRNA in the absence of chemical substance", "setting": "yeast gene YOR328W", "value": 1.0},
      {"measurement": "The level of expressed mRNA in the presence of chemical substance/The level of expressed mRNA in the absence of chemical substance", "setting": "yeast gene YOR332W", "value": 1.0},
      {"measurement": "The level of expressed mRNA in the presence of chemical substance/The level of expressed mRNA in the absence of chemical substance", "setting": "yeast gene YOR348C", "value": 0.7},
      {"measurement": "The level of expressed mRNA in the presence of chemical substance/The level of expressed mRNA in the absence of chemical substance", "setting": "yeast gene YPL036W", "value": 0.8},
      {"measurement": "The level of expressed mRNA in the presence of chemical substance/The level of expressed mRNA in the absence of chemical substance", "setting": "yeast gene YPL134C", "value": 1.0},
      {"measurement": "The level of expressed mRNA in the presence of chemical substance/The level of expressed mRNA in the absence of chemical substance", "setting": "yeast gene YPL271W", "value": 3.2},
      {"measurement": "The level of expressed mRNA in the presence of chemical substance/The level of expressed mRNA in the absence of chemical substance", "setting": "yeast gene YPR192W", "value": 1.1},
      {"measurement": "The level of expressed mRNA in the presence of chemical substance/The level of expressed mRNA in the absence of chemical substance", "setting": "yeast gene YPR194C", "value": 1.4}
    ]}
  ]
}
